Laboratory results: patent US10201516B2 (The Regents of the University of California, priority 2014, dated 2019)

Legend:
[1] = PKC activators, literature; cited from earlier work
[2] = system: β-catenin/TCF/LEF transcriptional activity; assay: TOPFlash assay in NIH/3T3 cells; assay type: cell-based, mouse; conditions: for β-catenin/TCF/LEF transcriptional activity (TOPFlash): Ras^V12-transformed NIH/3T3 cells, 0.5 μM for 12 hours (FIG. 10E)
Method: (§1) Tankyrase inhibitors, JW55, Cardinogenl, and JW67, were purchased from R&D Systems. The cells were treated with the inhibitors at 0.5 μM for 12 hours for TOPFlash assays. For sphere formation assays, the cells were cultured in complete medium with different Tankyrase inhibitors.
Cells were transfected with TOPFlash (Addgene#12456), FOPFlash (Addgene#12457) or pGL3-NFAT (Addgene#17870) luciferase reporter constructs by using Fugene6 (Roche). 48th hour post-transfection the luciferase activities in cell lysates were measured using Bright-Glo Luciferase Assay System (Promega) according to the manufacturer's instructions.

NIH/3T3 cells = assay: Sphere formation assay in NIH/3T3 cells; assay type: cell-based, mouse; conditions: for sphere forming efficiency: K-Ras^V12 transformed NIH/3T3 cells (FIG. 10F); for sphere formation: vector control or H-Ras^V12 transformed NIH/3T3 (FIG. 10F)
Method: as §1
Cells were harvested, counted and seeded into Ultra Low Attachment Culture 96-well plate (Corning Life Science, Catalog number 3261) at 10 or 100 cells per well. The seeded cells and formed spheres were maintained in low serum containing medium with 0.1% FBS or CS. The initiated spheres were observed twice and week. The numbers of formed spheres were counted one month after seeding. The spheres were harvested and re-seeded into 12-well or 24-well plate with complete growth medium at one sphere per well. The re-plated colonies were stained and visualized by 0.05% crystal violet staining (in […]).

CaMKii = assay: Western blot of phospho-CaMKii in Ras-transformed NIH/3T3 cells (and human pancreatic cancer cell lines); assay type: cell-based, mouse; conditions: NIH/3T3-H-Ras^V12 and vector control cells (FIG. 3B)
Method: (§2) Experimental cells were washed twice in ice-cold PBS and lysed in 1% Triton lysis buffer [25 mmol/L Tris pH 7.5, 150 mmol/L NaCl, 1% Triton X-100, 1 mmol/L EDTA, 1 mmol/L EGTA, 20 mmol/L NaF, 1 mmol/L […], and 1 mmol/L DTT] supplemented with a protease inhibitor cocktail (Roche) and cleared by centrifugation. Protein concentrations were determined by the Bio-Rad Protein Assay (Bio-Rad). Equal amounts of protein extracts were resolved using SDS-PAGE (NuPAGE; Invitrogen), transferred to a nitrocellulose membrane, and immunoblotted with primary antibodies indicated, followed by secondary antibodies labeled with either IRDye800 (Rockland) or Alexa Fluor 680 (Molecular Probes) and were visualized using a LI-COR Odyssey scanner. A complete list of primary antibodies is provided in the Extended Experimental Procedures.

Fzd8 = assay: Western blot of Fzd8 expression in NIH/3T3 cells; assay type: cell-based, mouse; conditions: NIH/3T3-H-Ras^V12 cells (FIG. 3B)
Method: as §2

| SMILES | tumor promotion [1] | β-catenin/TCF/LEF transcriptional activity (TOPFlash) [2] | sphere forming efficiency (NIH/3T3 cells) | sphere formation (NIH/3T3 cells) | phosphorylation of CaMKii (CaMKii) | Fzd8 expression (Fzd8) | β-catenin transcriptional activity ([2]; NIH/3T3-H-Ras^V12 cells (FIG. 3C)) | sphere forming efficiency and size of spheroid colonies (NIH/3T3 cells; NIH/3T3-H-Ras^V12 cells (FIG. 3D)) |
| --- | --- | --- | --- | --- | --- | --- | --- | --- |
| CCCCCCCCCCCCCC(=O)O[C@@H]1[C@@H](C)[C@@]2(O)[C@@H](C=C(CO)C[C@]3(O)C(=O)C(C)=C[C@@H]23)[C@@H]2C(C)(C)[C@]12OC(C)=O [PMA, phorbol-12-myristate-13-acetate, reference compound] | tumor promoting |  |  |  |  |  |  |  |
| c1coc(-c2nnc3sc(C4CCCCC4)nn23)c1 [cardionogen1] |  | successfully repressed β-catenin/TCF/LEF transcriptional activity | still maintained their sphere forming efficiency | inhibited sphere formation |  |  |  |  |
| COc1ccc(S(=O)(=O)N(CCO)c2ccccc2CN(C)C/C=C/c2ccc(Cl)cc2)cc1 [KN-93] |  |  |  |  | reduced phosphorylation of CaMKii | reduced Fzd8 expression | increased β-catenin transcriptional activity | dramatically enhanced the sphere forming efficiency and the size of spheroid colonies |
| O=C1Nc2ccccc2C12OCC1(CO2)COC2(OC1)C(=O)Nc1ccccc12 (centres unmarked) [JW67] |  | successfully repressed β-catenin/TCF/LEF transcriptional activity | still maintained their sphere forming efficiency | inhibited sphere formation |  |  |  |  |
| COc1ccc(C2(CNC(=O)c3ccc(NC(=O)c4ccco4)cc3)CCOCC2)cc1 [JW55] |  | successfully repressed β-catenin/TCF/LEF transcriptional activity | still maintained their sphere forming efficiency | inhibited sphere formation |  |  |  |  |
